Assay results taken from publication PMC5291098, “Molecular mutagenesis of ppGpp: turning a RelA activator into an inhibitor” (Scientific Reports, 2017).
Entries after “also recorded” stand apart in the source; their conditions may differ. Where two headings read alike, the source gives them in different places.

Columns and labels:
E. coli RelA = target: T1, E. coli RelA (Escherichia coli, UniProt P0AG20); experiment: Inhibition of [3H]GDP to [3H]ppGpp conversion by E. coli RelA activated by vacant 70S ribosomes and 100 μM ppGpp; type: biochemical; details: for IC50: 30 nM RelA, 0.5 μM vacant 70S, 100 μM ppGpp; for nHill (Hill coefficient of the titration fit): Supplementary Table 1, 4-parameter logistic model
T1 construct: made in house
Method: For the initial characterization of compounds, we followed the inhibition of [^3H] GDP conversion to [^3H] ppGpp catalyzed by E. coli RelA in a simplified system in which RelA’s activity was induced by vacant 70S ribosomes and 100 μM of ppGpp[15]. Unlabeled ppGpp was added to reaction mixtures in order to linearize the kinetics of [^3H] ppGpp synthesis due to an activating effect on the RelA enzyme. We used a targeted library of 69 nucleotides belonging to several structural classes: ‘true’ ppGpp analogues; Relacin and its derivatives; pyrrolidine, azetidine, piperidine and acyclic phosphonates. Chemical structures of tested compounds and titrations in the RelA:70S:ppGpp system are presented in Supplementary Table 1.
Detailed description of experimental procedures can be found in Supplementary Text. Biochemical assays utilize in vitro translation[58] and stringent response[15] systems from E. coli purified components. Experiments were performed in HEPES:Polymix[58] buffer with either 5 (for enzymatically assembled initiation complexes) or 15 mM (for vacant 70 S, as well as non-enzymatically assembled programmed ribosomes) Mg^2+. Expression and purification of E. faecalis RelQ was performed as per Gaca (2015) and colleagues. GTPase and ppGpp synthesis were followed using TLC separation and radiochemical detection of ^3H-labelled nucleotides. Multiple round in vitro transcription assays were performed as per Bernardo et al.[49] with minor modifications. Inhibition efficiency (IC50) was calculated using 4-parameter logistic model (Hill equation) as per Sebaugh[60].
Thin layer chromatography (TLC) analysis of nucleotide mixtures
Both EF-G GTPase reaction and ppGpp synthesis by RelA were followed by TLC analysis followed by scintillation counting according to Mechold and colleagues, with modifications1. Time points from the reaction mixtures (5 μl, see below for details) were quenched by addition 4 μl 70% formic acid supplemented with a cold nucleotide standard used for UV-shadowing (10 mM GDP and 10 mM GTP) and spotted on PEI-TLC plates (Macherey-Nagel). TLC was run in buffer, plates dried, cut into sections guided by UV-shadowing and 3H radioactivity was quantified by scintillation counting in Optisafe-3 (Fisher) scintillation cocktail on Perkin Elmer Tricarb 2810TR counter. Conversion of substrate to product was quantified as described in Shyp et al. (2012)2.
Enzymatic assays with E. coli RelA
Screening: all experiments were performed in HEPES:Polymix, Mg2+ of 5 mM, 37 […]
μM ppGpp was pre-incubated at 37° C for 2 min and then reaction started by addition of 1 mM ATP, time points (5 μl) taken, quenched with formic acid and analyzed by TLC. Inhibition efficiency (IC50) was calculated using 4-parameter logistic model (Hill equation) as per Sebaugh (2011)3. […]

ΔywaCΔyjbM B. subtilis = experiment: Growth of ΔywaCΔyjbM B. subtilis in valine drop-out S7 medium (functional test for Rel inhibition); type: cell-based, Bacillus subtilis; details: up to 1 mM (0 to 1000 µM)
From the text: Finally, we tested the three of our most promising inhibitors (DR-4250, DR-M014 and DR-5163) for RSH inhibition in bacterial culture. For this we used the Gram-positive bacterium B. subtilis due to its better uptake of compounds as compared to Gram-negative species such as E. coli[50]. The functional test for RSH inhibition relied on the auxotrophy of (p)ppGpp-deficient (ppGpp^0) B. subtilis for methionine and branched-chain amino acids valine, leucine and isoleucine. The B. subtilis RSH repertoire consists of one multi-domain ribosome-associated enzyme Rel and two SAS, YwaC and YjbM[3][52]. Because the SAS RelQEf is refractory to inhibition by our test compounds (Supplementary Figure 2), we used a B. subtilis strain lacking SASs (ΔywaCΔyjbM), in which the sole source of (p)ppGpp is Rel[53]. Defined S7 medium[54] lacking valine supports the growth of ΔywaCΔyjbM B. subtilis, but not the ppGpp^0 stain (Supplementary Figure 5). […] This is indicative of the test compounds failing to inhibit Rel and thereby rendering the strain phenotypically ppGpp^0 (Supplementary Figure 5). A lack of cellular uptake is a likely explanation. […]
Growth assays with Bacillus subtilis BSB1 wild type strain
SAS deletion and ppGpp0 strain of B. subtilis5 were grown in S7 liquid medium6 except for amino acid requirements, which were met as described elsewhere 7. On 96-well plate, 90 µl of B subtilis starter culture was mixed with 10 µL of compound dilution (in 5 mM Tris pH 7.2) so that final OD600 was 0.025 (l = 1 cm).
Following incubation was without shaking at 37°C and growth was monitored with Tecan Infinite M200 at OD600 (raw OD600 values are reported). B. subtilis starter culture was prepared as follows. Late exponential phase cells in S7, with full set of amino acids, were diluted ≈10-fold in S7 lacking either valine or lysine so that, after addition of 8% DMSO, OD600 was 0.25. Next, cell suspensions were aliquoted, frozen in liquid nitrogen, and stored at -80°C. Just before the experiment, cells were thawed on ice and appropriate amount of media was […]
DywaC DyjbM BSB1 B. subtilis ppGpp0. BSB1 B. subtilis wild type strain as grown on S7 synthetic media8 drop-out media lacking valine which abolishes the growth of ppGpp0 (Drel DywaC DyjbM) strain due to valine auxotrophy (dashed line). […]
inhibit the Rel and render the strain ppGpp0.

[1] = 0.3 mM [3H]GDP, 1 mM ATP, read-out: IC50
[2] = 5 mM Mg2+, 37 °C, no unit beside the value, titration axis in mM, read-out: IC50 (Supplementary Table 1, example titration)

T1 sequence (P0AG20 whole entry): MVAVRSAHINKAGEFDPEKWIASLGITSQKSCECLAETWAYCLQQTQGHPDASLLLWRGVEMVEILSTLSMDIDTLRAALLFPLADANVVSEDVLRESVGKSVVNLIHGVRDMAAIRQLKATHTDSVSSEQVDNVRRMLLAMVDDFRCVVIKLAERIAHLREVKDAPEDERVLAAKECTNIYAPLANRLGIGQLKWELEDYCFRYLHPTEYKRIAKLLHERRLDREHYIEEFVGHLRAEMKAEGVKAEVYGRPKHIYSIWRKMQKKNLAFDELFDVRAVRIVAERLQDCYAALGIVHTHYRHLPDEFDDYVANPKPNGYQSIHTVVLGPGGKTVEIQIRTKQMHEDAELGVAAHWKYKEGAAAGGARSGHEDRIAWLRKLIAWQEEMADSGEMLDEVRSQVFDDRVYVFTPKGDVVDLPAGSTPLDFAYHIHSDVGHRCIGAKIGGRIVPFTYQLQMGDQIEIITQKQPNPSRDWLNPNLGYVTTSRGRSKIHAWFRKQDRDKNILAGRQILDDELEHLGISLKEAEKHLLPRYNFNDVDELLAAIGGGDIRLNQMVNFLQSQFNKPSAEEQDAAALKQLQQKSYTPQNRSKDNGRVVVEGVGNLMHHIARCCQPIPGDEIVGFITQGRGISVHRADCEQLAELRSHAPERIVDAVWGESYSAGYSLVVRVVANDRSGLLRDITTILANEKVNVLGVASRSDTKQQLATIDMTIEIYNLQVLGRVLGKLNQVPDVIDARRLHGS

SMILES	IC50 (E. coli RelA; [1]) [mM]	IC50 (E. coli RelA; [2]) [mM]	nHill (Hill coefficient of the titration fit) (E. coli RelA)	Effect on growth of ΔywaCΔyjbM B. subtilis (in words) (ΔywaCΔyjbM B. subtilis)	Effect on growth of ΔywaCΔyjbM B. subtilis (in words) (ΔywaCΔyjbM B. subtilis; listed as DR-M013)
Nc1nc2c(ncn2C2CCN(C(=O)P(=O)(O)O)CC2)c(=O)[nH]1 [DR-M014]	0.121 ± 0.02	0.12 ± 0.02	1.9 ± 0.5	does not affect the growth	did not affect bacterial growth
Nc1nc2c(ncn2C2OC(COP(=O)(O)OCP(=O)(O)O)C(OP(=O)(O)OCP(=O)(O)O)C2O)c(=O)[nH]1 (stereo not drawn) [DR-4250, Guanosine 3’,5’-di(phosphonomethoxyphosphate)]	0.054 ± 0.003	0.053 ± 0.003	2.74 ± 0.5	did not affect bacterial growth; also recorded: does not affect the growth	–
